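48-hour exposure; five concentrations; linearly interpolated endpoints. GI50 is the concentration that inhibits growth by half. TGI: total growth inhibition.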
Tests used:
Test in all cases: NCI tumour cell line growth inhibition, 48 h
SK-MEL-2 melanoma = system: SK-MEL-2 melanoma
NCI-H226 lung = system: NCI-H226 lung
PC-3 prostate = system: PC-3 prostate
786-0 renal = system: 786-0 renal
MCF7 breast = system: MCF7 breast
SW-620 colon = system: SW-620 colon
OVCAR-5 ovarian = system: OVCAR-5 ovarian
UACC-62 melanoma = system: UACC-62 melanoma
HCT-116 colon = system: HCT-116 colon
MALME-3M melanoma = system: MALME-3M melanoma
SF-268 CNS = system: SF-268 CNS
HOP-62 NSCLC = system: HOP-62 NSCLC
MDA-MB-435 = system: MDA-MB-435
LOX IMVI melanoma = system: LOX IMVI melanoma
MOLT-4 leukemia = system: MOLT-4 leukemia
M14 melanoma = system: M14 melanoma
SK-MEL-5 melanoma = system: SK-MEL-5 melanoma
SN12C renal = system: SN12C renal
HS 578T breast = system: HS 578T breast
ACHN renal = system: ACHN renal
COLO 205 colon = system: COLO 205 colon
CCRF-CEM leukemia = system: CCRF-CEM leukemia
CAKI-1 renal = system: CAKI-1 renal
OVCAR-4 ovarian = system: OVCAR-4 ovarian
IGROV1 ovarian = system: IGROV1 ovarian
HT29 colon = system: HT29 colon
OVCAR-3 ovarian = system: OVCAR-3 ovarian
K-562 leukemia = system: K-562 leukemia
NCI-H522 lung = system: NCI-H522 lung
NCI-H23 lung = system: NCI-H23 lung
MDA-MB-231 breast = system: MDA-MB-231 breast
SF-295 CNS = system: SF-295 CNS
RXF 393 renal = system: RXF 393 renal
U251 CNS = system: U251 CNS
DU-145 prostate = system: DU-145 prostate
SNB-75 CNS = system: SNB-75 CNS
UACC-257 melanoma = system: UACC-257 melanoma
NCI-H460 lung = system: NCI-H460 lung
BT-549 breast = system: BT-549 breast
HCC-2998 colon = system: HCC-2998 colon
TK-10 renal = system: TK-10 renal
UO-31 renal = system: UO-31 renal
HL-60(TB) leukemia = system: HL-60(TB) leukemia
RPMI-8226 leukemia = system: RPMI-8226 leukemia
EKVX NSCLC = system: EKVX NSCLC
SNB-19 CNS = system: SNB-19 CNS
SK-MEL-28 melanoma = system: SK-MEL-28 melanoma
HCT-15 colon = system: HCT-15 colon
KM12 colon = system: KM12 colon
OVCAR-8 ovarian = system: OVCAR-8 ovarian
A549 NSCLC = system: A549 NSCLC
SF-539 CNS = system: SF-539 CNS
T-47D breast = system: T-47D breast
SK-OV-3 ovarian = system: SK-OV-3 ovarian
A498 renal = system: A498 renal
HOP-92 NSCLC = system: HOP-92 NSCLC
NCI/ADR-RES ovarian = system: NCI/ADR-RES ovarian

Cc1c(C(N)=O)sc2c1c(=O)n(Cc1ccccc1)c1nnc(-c3ccc(Br)cc3)n21
GI50 (SK-MEL-2 melanoma): 5.73 µM
TGI (SK-MEL-2 melanoma): 18.7 µM
GI50 (NCI-H226 lung): 2.46 µM
TGI (NCI-H226 lung): 9.82 µM
GI50 (PC-3 prostate): 4.06 µM
TGI (PC-3 prostate): 22.3 µM
GI50 (786-0 renal): 2.09 µM
TGI (786-0 renal): 5.73 µM
GI50 (MCF7 breast): 3.4 µM
TGI (MCF7 breast): 14.6 µM
GI50 (SW-620 colon): 2.98 µM
TGI (SW-620 colon): 18.9 µM
GI50 (OVCAR-5 ovarian): 7.17 µM
TGI (OVCAR-5 ovarian): 21.3 µM
GI50 (UACC-62 melanoma): 1.78 µM
TGI (UACC-62 melanoma): 8.46 µM
GI50 (HCT-116 colon): 1.75 µM
TGI (HCT-116 colon): 13.6 µM
GI50 (MALME-3M melanoma): 2.94 µM
TGI (MALME-3M melanoma): 13.7 µM
GI50 (SF-268 CNS): 1.4 µM
TGI (SF-268 CNS): 13.4 µM
GI50 (HOP-62 NSCLC): 1.38 µM
TGI (HOP-62 NSCLC): 14.4 µM
GI50 (MDA-MB-435): 3.49 µM
TGI (MDA-MB-435): 20.7 µM
GI50 (LOX IMVI melanoma): 1.27 µM
TGI (LOX IMVI melanoma): 10.2 µM
GI50 (MOLT-4 leukemia): 1.64 µM
TGI (MOLT-4 leukemia): 17.3 µM
GI50 (M14 melanoma): 1.51 µM
TGI (M14 melanoma): 3.67 µM
GI50 (SK-MEL-5 melanoma): 1.47 µM
TGI (SK-MEL-5 melanoma): 4.89 µM
GI50 (SN12C renal): 2.36 µM
TGI (SN12C renal): 14.1 µM
GI50 (HS 578T breast): 5.2 µM
TGI (HS 578T breast): 54.9 µM
GI50 (ACHN renal): 1.46 µM
TGI (ACHN renal): 12.3 µM
GI50 (COLO 205 colon): 3.12 µM
TGI (COLO 205 colon): 15 µM
GI50 (CCRF-CEM leukemia): 0.805 µM
TGI (CCRF-CEM leukemia): 22.8 µM
GI50 (CAKI-1 renal): 0.431 µM
TGI (CAKI-1 renal): 6.96 µM
GI50 (OVCAR-4 ovarian): 2.51 µM
TGI (OVCAR-4 ovarian): 15.8 µM
GI50 (IGROV1 ovarian): 2.15 µM
TGI (IGROV1 ovarian): 19.2 µM
GI50 (HT29 colon): 2.32 µM
TGI (HT29 colon): 13.4 µM
GI50 (OVCAR-3 ovarian): 2.48 µM
TGI (OVCAR-3 ovarian): 16.9 µM
GI50 (K-562 leukemia): 3.09 µM
TGI (K-562 leukemia): 20.4 µM
GI50 (NCI-H522 lung): 3.13 µM
TGI (NCI-H522 lung): 12.9 µM
GI50 (NCI-H23 lung): 3.11 µM
TGI (NCI-H23 lung): 15.2 µM
GI50 (MDA-MB-231 breast): 0.829 µM
TGI (MDA-MB-231 breast): 18.6 µM
GI50 (SF-295 CNS): 1.01 µM
TGI (SF-295 CNS): 11.8 µM
GI50 (RXF 393 renal): 1.81 µM
TGI (RXF 393 renal): 7.15 µM
GI50 (U251 CNS): 1.56 µM
TGI (U251 CNS): 13 µM
GI50 (DU-145 prostate): 2.32 µM
TGI (DU-145 prostate): 14.9 µM
GI50 (SNB-75 CNS): 4.44 µM
TGI (SNB-75 CNS): 20.9 µM
GI50 (UACC-257 melanoma): 3.14 µM
TGI (UACC-257 melanoma): 11.8 µM
GI50 (NCI-H460 lung): 0.813 µM
TGI (NCI-H460 lung): 6.55 µM
GI50 (BT-549 breast): 3.85 µM
TGI (BT-549 breast): 18.9 µM
GI50 (HCC-2998 colon): 1.91 µM
TGI (HCC-2998 colon): 14.6 µM
GI50 (TK-10 renal): 3.33 µM
TGI (TK-10 renal): 16.3 µM
GI50 (UO-31 renal): 1.4 µM
TGI (UO-31 renal): 11.7 µM
GI50 (HL-60(TB) leukemia): 4.42 µM
TGI (HL-60(TB) leukemia): 38.8 µM
GI50 (RPMI-8226 leukemia): 4.72 µM
TGI (RPMI-8226 leukemia): 47.7 µM
GI50 (EKVX NSCLC): 3.11 µM
TGI (EKVX NSCLC): 21.6 µM
GI50 (SNB-19 CNS): 2.91 µM
TGI (SNB-19 CNS): 17.5 µM
GI50 (SK-MEL-28 melanoma): 4.09 µM
TGI (SK-MEL-28 melanoma): 17.1 µM
GI50 (HCT-15 colon): 0.705 µM
TGI (HCT-15 colon): 17.9 µM
GI50 (KM12 colon): 3.31 µM
TGI (KM12 colon): 17.9 µM
GI50 (OVCAR-8 ovarian): 2.21 µM
TGI (OVCAR-8 ovarian): 15 µM
GI50 (A549 NSCLC): 2.51 µM
TGI (A549 NSCLC): 13.1 µM
GI50 (SF-539 CNS): 2.87 µM
TGI (SF-539 CNS): 12.5 µM
GI50 (T-47D breast): 3.38 µM
TGI (T-47D breast): 18.9 µM
GI50 (SK-OV-3 ovarian): 2.97 µM
TGI (SK-OV-3 ovarian): 16.3 µM
GI50 (A498 renal): 2.3 µM
TGI (A498 renal): 12.7 µM
GI50 (HOP-92 NSCLC): 5.09 µM
TGI (HOP-92 NSCLC): 21.3 µM
GI50 (NCI/ADR-RES ovarian): 2.28 µM
TGI (NCI/ADR-RES ovarian): 11.2 µM
